Measured values reported in PMC12638379, “An innovative approach to development of new pyrazolylquinolin-2-one hybrids as dual EGFR and BRAF^V600E inhibitors” (Molecular Diversity, 2025).
Read-outs that look alike come from different tables or passages of the source.

Key:
NCI 60 cancer cell lines = experiment: NCI anticancer screening over a panel of 60 cancer cells, single concentration 10 µM; assay type: cell-based, human; conditions: Homo sapiens, read-out: % Growth Inhibition (GI %)
How it was run: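 Primary single-dose screen at 10 µM over the NCI panel of 60 human tumour cell lines (leukemia, CNS, lung, colon, kidney, ovary, breast, prostate). The standard NCI Developmental Therapeutics Program protocol was used.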

[1] = tested on: breast cancer (T47D) cell line; experiment: MTT antiproliferative assay, T-47D
Procedure: The median inhibitory concentration (IC50) and GI50 (average IC50) against the three cancer cell lines were calculated. See Appendix B.
Cells were cultured using DMEM (Invitrogen/Life Technologies) supplemented with 10% FBS (Hyclone,), 10 ug/ml of insulin (Sigma), and 1% penicillin-streptomycin. Plate cells (cells density 1.2 – 1.8 × 10,000 cells/well) in a volume of 100µl complete growth medium + 100 ul of the tested compound per well in a 96-well plate for 24 hours before the MTT assay. In atypical experiment, one hundred micro liters of serial 10-fold diluted sterile tested compounds were added to final concentrations of […] using culture media as negative control. After 24 h of culture incubation and supernatants discarded. HOP-92 lung, MOLT-4 leukemia, and T-47D breast cell lines were trypsinized and washed with Ca2/Mg2 free PBS (pH 7.2). we removed cultures from incubator into laminar flow hood or other sterile work area. […] Each test should include a blank containing complete medium without cells. […] Add reconstituted MTT in an amount equal to 10% of the culture medium volume. Return cultures to incubator for 2-4 hours depending on cell type and maximum cell density. […] Spectrophotometrically absorbance was measured at a wavelength of 570 nm. Measure the background absorbance of multiwell plates at 690 nm and subtract from the […] measurement. Results from all experiments were recorded and the percentage of viable cells was calculated.

EGFR = molecular target: T1, EGFR (Homo sapiens, UniProt P00533); experiment: EGFR inhibitory assay; assay type: biochemical; conditions: for %inh: EGFR, unit not given
T1 construct: EGFR cytoplasmic domain (EGFR-CD, amino acids 645–1186); His6 (N); made in house; host or cells: Sf-9 insect cells (baculovirus)
T1 sequence (P00533 669-1210): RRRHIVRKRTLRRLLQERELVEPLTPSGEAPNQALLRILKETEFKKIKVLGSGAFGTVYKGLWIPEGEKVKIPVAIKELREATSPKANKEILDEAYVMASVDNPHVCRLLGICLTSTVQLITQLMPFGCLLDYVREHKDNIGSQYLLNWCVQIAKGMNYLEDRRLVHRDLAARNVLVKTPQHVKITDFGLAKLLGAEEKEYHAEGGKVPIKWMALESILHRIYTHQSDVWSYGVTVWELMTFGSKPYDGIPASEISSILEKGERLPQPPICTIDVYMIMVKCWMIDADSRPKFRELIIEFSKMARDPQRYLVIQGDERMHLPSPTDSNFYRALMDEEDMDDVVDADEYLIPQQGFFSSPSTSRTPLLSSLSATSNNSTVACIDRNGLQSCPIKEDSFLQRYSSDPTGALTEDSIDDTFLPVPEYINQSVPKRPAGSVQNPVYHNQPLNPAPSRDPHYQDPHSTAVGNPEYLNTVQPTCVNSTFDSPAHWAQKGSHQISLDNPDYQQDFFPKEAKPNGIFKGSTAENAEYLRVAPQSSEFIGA

C/C(=N\Nc1ccc(S(N)(=O)=O)cc1)c1cnn(-c2cc(=O)[nH]c3ccc(Cl)cc23)c1C [Compound 4d, (E)-4-(2-(1-(1-(6-chloro-2-oxo-1,2-dihydroquinolin-4-yl)-5-methyl-1H-pyrazol-4-yl)ethylidene)hydrazineyl)benzenesulfonamide]
inhibition at 10 µM (NCI 60 cancer cell lines; MOLT-4, Leukemia MOLT-4, 10 μM): 34.3% | inhibition at 10 µM (NCI 60 cancer cell lines; Melanoma M14, 10 μM): 20.7% | inhibition at 10 µM (NCI 60 cancer cell lines; Melanoma MALM-3M, 10 μM): 44.5% | inhibition at 10 µM (NCI 60 cancer cell lines; NCI-H23, Non-small cell lung cancer NCI-H23, 10 μM): 16.9% | inhibition at 10 µM (NCI 60 cancer cell lines; NCI-H226, Non-small cell lung cancer NCI-H226, 10 μM): 17.6% | inhibition at 10 µM (NCI 60 cancer cell lines; NCI-H322M, Non-small cell lung cancer NCI-H322M, 10 μM): 8.41% | inhibition at 10 µM (NCI 60 cancer cell lines; NCI-H460, Non-small cell lung cancer NCI-H460, 10 μM): 6.52% | inhibition at 10 µM (NCI 60 cancer cell lines; NCI-H522, Non-small cell lung cancer NCI-H522, 10 μM): 44.8% | inhibition at 10 µM (NCI 60 cancer cell lines; NCI/ADR-RES, Ovarian cancer NCI/ADR-RES, 10 μM): 5.85% | inhibition at 10 µM (NCI 60 cancer cell lines; OVCAR-3, Ovarian cancer OVCAR-3, 10 μM): 23.4% | inhibition at 10 µM (NCI 60 cancer cell lines; OVCAR-4, Ovarian cancer OVCAR-4, 10 μM): 24.2% | inhibition at 10 µM (NCI 60 cancer cell lines; OVCAR-5, Ovarian cancer OVCAR-5, 10 μM): 11.5% | inhibition at 10 µM (NCI 60 cancer cell lines; OVCAR-8, Ovarian cancer OVCAR-8, 10 μM): 6.15% | inhibition at 10 µM (NCI 60 cancer cell lines; Prostate cancer PC-3, 10 μM): 18.5% | inhibition at 10 µM (NCI 60 cancer cell lines; RPMI-8226, Leukemia RPMI-8226, 10 μM): 15.7% | inhibition at 10 µM (NCI 60 cancer cell lines; RXF 393, Renal cancer RXF 393, 10 μM): < 5% | inhibition at 10 µM (NCI 60 cancer cell lines; SF-268, CNS Cancer SF-268, 10 μM): 28.7% | inhibition at 10 µM (NCI 60 cancer cell lines; SF-295, CNS Cancer SF-295, 10 μM): 9.48% | inhibition at 10 µM (NCI 60 cancer cell lines; SF-539, CNS Cancer SF-539, 10 μM): 33% | inhibition at 10 µM (NCI 60 cancer cell lines; SK-MEL-2, Melanoma SK-MEL-2, 10 μM): 27.2% | inhibition at 10 µM (NCI 60 cancer cell lines; SK-MEL-5, Melanoma SK-MEL-5, 10 μM): 21.8% | inhibition at 10 µM (NCI 60 cancer cell lines; SK-MEL-28, Melanoma SK-MEL-28, 10 μM): 24.7% | inhibition at 10 µM (NCI 60 cancer cell lines; SK-OV-3, Ovarian cancer SK-OV-3, 10 μM): 24.1% | inhibition at 10 µM (NCI 60 cancer cell lines; SN12C, Renal cancer SN12C, 10 μM): 27% | inhibition at 10 µM (NCI 60 cancer cell lines; SNB-19, CNS Cancer SNB-19, 10 μM): 24.9% | inhibition at 10 µM (NCI 60 cancer cell lines; SNB-75, CNS Cancer SNB-75, 10 μM): 35.4% | inhibition at 10 µM (NCI 60 cancer cell lines; SW-620, Colon cancer SW-620, 10 μM): 7.13% | inhibition at 10 µM (NCI 60 cancer cell lines; T47D, Breast cancer T-47D, 10 μM): 54% | inhibition at 10 µM (NCI 60 cancer cell lines; TK-10, Renal cancer TK-10, 10 μM): < 5% | inhibition at 10 µM (NCI 60 cancer cell lines; U-251, CNS Cancer U251, 10 μM): 26.3% | inhibition at 10 µM (NCI 60 cancer cell lines; UACC-62, Melanoma UACC-62, 10 μM): 41.8% | inhibition at 10 µM (NCI 60 cancer cell lines; UACC-257, Melanoma UACC-257, 10 μM): 4.52% | inhibition at 10 µM (NCI 60 cancer cell lines; UO-31, Renal cancer UO-31, 10 μM): 37.7% | viability at 0.4 µM ([1]; Homo sapiens, T47D, T-47D, MTT, 0.4uM): 77.2% | viability at 1.6 µM ([1]; Homo sapiens, T47D, T-47D, MTT, 1.6uM): 68.1% | viability at 6.3 µM ([1]; Homo sapiens, T47D, T-47D, MTT, 6.3uM): 56.8% | viability at 25 µM ([1]; Homo sapiens, T47D, T-47D, MTT, 25uM): 45.8% | viability at 100 µM ([1]; Homo sapiens, T47D, T-47D, MTT, 100uM): 33.6% | IC50 ([1]; Homo sapiens, T47D, read-out: Antiproliferative activity IC50 ± SEM, T-47D, MTT): 13.8 ± 0.48 µM | % viability ([1]; T-47D, MTT, 1.6uM, listed as Ws4, 1.6 µM): 68.09% | % viability ([1]; T-47D, MTT, 6.3uM, listed as Ws4, 6.3 µM): 56.85% | % viability ([1]; T-47D, MTT, 25uM, listed as Ws4, 25 µM): 45.78% | % viability ([1]; T-47D, MTT, 100uM, listed as Ws4, 100 µM): 33.56% | %inh (EGFR; conc 0.01 (log -2)): 27.8% | %inh (EGFR; conc 0.1 (log -1)): 40.6% | %inh (EGFR; conc 1 (log 0)): 72.7% | %inh (EGFR; conc 10 (log 1)): 86.9% | %inh (EGFR; conc 100 (log 2)): 93.7% | IC50 (EGFR; read-out: EGFR inhibition IC50 ± SEM): 0.156 ± 0.006 µM
